Assay results from ChEMBL document CHEMBL5365467 (J Med Chem, 2023).

Target: Protein cereblon/Androgen receptor (Homo sapiens, UniProt P10275+Q96SW2)
Assay: PROTAC activity at AR/CRBN in AR-positive human VCaP cells assessed as induction of androgen receptor degradation measured at 24 hrs
Format: cell-based
Details: not given; call rule not given here

Chain of Protein cereblon/Androgen receptor (Homo sapiens, UniProt P10275+Q96SW2) (Q96SW2 whole entry, one chain of several): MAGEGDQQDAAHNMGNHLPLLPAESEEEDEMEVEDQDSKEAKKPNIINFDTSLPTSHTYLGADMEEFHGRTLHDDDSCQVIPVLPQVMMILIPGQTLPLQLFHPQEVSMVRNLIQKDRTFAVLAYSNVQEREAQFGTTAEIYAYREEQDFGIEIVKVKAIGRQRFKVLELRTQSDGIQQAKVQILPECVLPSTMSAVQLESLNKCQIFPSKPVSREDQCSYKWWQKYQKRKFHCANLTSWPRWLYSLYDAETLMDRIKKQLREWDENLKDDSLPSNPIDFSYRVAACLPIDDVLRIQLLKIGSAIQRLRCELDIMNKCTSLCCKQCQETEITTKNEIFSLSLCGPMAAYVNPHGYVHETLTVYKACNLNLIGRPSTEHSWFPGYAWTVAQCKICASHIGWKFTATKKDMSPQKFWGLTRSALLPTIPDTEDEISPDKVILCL

Compound | DC50
C[C@@H]1CC2(CCN(c3ccc(C(=O)N4CCN(C)CC4)cc3)CC2)CN1c1ccc(C#N)c(Cl)c1 | Not Active

Same assay, conditions: read-out: DC50

Compound | DC50
N#Cc1ccc(N2CCC3(CCN(c4ccc(C(=O)N5CCC(CCN6CCc7cc8c(cc7CC6)C(=O)N(C6CCC(=O)NC6=O)C8=O)CC5)cc4)CC3)C2)cc1Cl (stereo not given) | 3000 nM
N#Cc1ccc(N2CCC3(CCN(c4ccc(C(=O)N5CCC(CN6CCc7cc8c(cc7C6)C(=O)N(C6CCC(=O)NC6=O)C8=O)CC5)cc4)CC3)C2)cc1Cl (stereo not given) | 25 nM
C[C@H]1CC2(CCN(c3ccc(C(=O)N4CCC(O)(CN5Cc6cc7c(cc6C5)C(=O)N(C5CCC(=O)NC5=O)C7=O)CC4)cc3)CC2)CN1c1ccc(C#N)c(Cl)c1 (stereo not given in full) | 290 nM
N#Cc1ccc(N2CCC3(CCN(c4ccc(C(=O)N5CCC(N6Cc7cc8c(cc7C6)C(=O)N(C6CCC(=O)NC6=O)C8=O)CC5)cc4)CC3)C2)cc1Cl (stereo not given) | 9.7 nM
N#Cc1ccc(N2CCC3(CCN(c4ccc(C(=O)N5CCC(CN6Cc7cc8c(cc7C6)C(=O)N(C6CCC(=O)NC6=O)C8=O)CC5)cc4)CC3)C2)cc1Cl (stereo not given) | 5.7 nM
C[C@H]1CC2(CCN(c3ccc(C(=O)N4CCC(CN5Cc6cc7c(cc6C5)C(=O)N(C5CCC(=O)NC5=O)C7=O)CC4)nc3)CC2)CN1c1ccc(C#N)c(Cl)c1 (stereo not given in full) | 15.6 nM
C[C@@H]1CC2(CCN(c3ccc(C(=O)N4CCC(CN5Cc6cc7c(cc6C5)C(=O)N(C5CCC(=O)NC5=O)C7=O)CC4)cc3)CC2)CN1c1ccc(C#N)c(Cl)c1 (stereo not given in full) | 385 nM
N#Cc1ccc(N2CCC3(CCN(c4ccc(C(=O)N5CCC(N6CCc7cc8c(cc7C6)C(=O)N(C6CCC(=O)NC6=O)C8=O)CC5)cc4)CC3)C2)cc1Cl (stereo not given) | 73 nM
C[C@H]1CC2(CCN(c3ccc(C(=O)N4CCC(CN5Cc6cc7c(cc6C5)C(=O)N(C5CCC(=O)NC5=O)C7=O)CC4)cn3)CC2)CN1c1ccc(C#N)c(Cl)c1 (stereo not given in full) | 2.3 nM

Tested on: VCaP
Assay: Growth inhibition in human VCaP cells
Details: not given

Compound | IC50
CC[C@H]1CC2(CCN(c3ccc(C(=O)N4CCC(CN5Cc6cc7c(cc6C5)C(=O)N(C5CCC(=O)NC5=O)C7=O)CC4)cc3)CC2)CN1c1ccc(C#N)c(Cl)c1 (stereo not given in full) | 23 nM
C[C@H]1CC2(CCN(c3ccc(C(=O)N4CCC(CN5Cc6cc7c(cc6C5)C(=O)N(C5CCC(=O)NC5=O)C7=O)CC4)nc3)CC2)CN1c1ccc(C#N)c(Cl)c1 (stereo not given in full) | 46 nM
C[C@H]1CC2(CCN(c3ccc(C(=O)N4CCC(CN5Cc6cc7c(cc6C5)C(=O)N(C5CCC(=O)NC5=O)C7=O)CC4)cn3)CC2)CN1c1ccc(C#N)c(Cl)c1 (stereo not given in full) | 11 nM

Target: T1, Androgen receptor (Homo sapiens, UniProt P10275)
T1 sequence (P10275 whole entry): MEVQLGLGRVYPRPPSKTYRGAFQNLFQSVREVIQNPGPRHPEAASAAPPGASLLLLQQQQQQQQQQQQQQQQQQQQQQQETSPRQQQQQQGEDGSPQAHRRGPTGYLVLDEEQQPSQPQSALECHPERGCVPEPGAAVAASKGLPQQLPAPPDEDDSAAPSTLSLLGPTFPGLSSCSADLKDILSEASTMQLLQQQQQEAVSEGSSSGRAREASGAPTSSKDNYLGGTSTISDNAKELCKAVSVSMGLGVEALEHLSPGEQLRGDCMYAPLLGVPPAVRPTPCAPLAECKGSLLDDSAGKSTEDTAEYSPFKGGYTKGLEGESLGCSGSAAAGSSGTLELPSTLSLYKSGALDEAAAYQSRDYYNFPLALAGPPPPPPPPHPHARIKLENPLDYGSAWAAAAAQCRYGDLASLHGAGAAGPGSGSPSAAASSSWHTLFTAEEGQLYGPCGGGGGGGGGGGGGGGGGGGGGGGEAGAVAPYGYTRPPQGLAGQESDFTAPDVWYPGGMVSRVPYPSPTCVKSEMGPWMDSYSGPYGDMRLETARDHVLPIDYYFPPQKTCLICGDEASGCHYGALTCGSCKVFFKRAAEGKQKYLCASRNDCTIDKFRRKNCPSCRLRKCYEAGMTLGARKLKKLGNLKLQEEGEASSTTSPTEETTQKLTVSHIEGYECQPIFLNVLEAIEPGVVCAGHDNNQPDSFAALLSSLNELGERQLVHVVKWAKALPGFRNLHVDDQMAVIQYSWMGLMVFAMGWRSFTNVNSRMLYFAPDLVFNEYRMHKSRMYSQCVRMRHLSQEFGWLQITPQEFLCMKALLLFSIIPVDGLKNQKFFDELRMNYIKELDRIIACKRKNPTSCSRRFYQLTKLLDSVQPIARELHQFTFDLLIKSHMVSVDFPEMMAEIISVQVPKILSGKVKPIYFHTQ
Details: not given

IC50 | Compound
55 nM | CN1CCN(c2ccc(C(=O)N[C@H]3CC[C@H](Oc4ccc(C#N)c(Cl)c4)CC3)cc2)CC1
5400 nM | CN1CCN(C(=O)c2ccc(N3CCC4(CCN(c5ccc(C#N)c(Cl)c5)CC4)C3)cc2)CC1
5000 nM | CN1CCN(c2ccc(C(=O)N3CCC4(CCN(c5ccc(C#N)c(Cl)c5)CC4)C3)cc2)CC1
6900 nM | CN1CCN(c2ccc(C(=O)N3CCC4(CCN(c5ccc(C#N)c(Cl)c5)C4)C3)cc2)CC1 (stereo not given)
1800 nM | CN1CCN(C(=O)c2ccc(N3CCC4(CCN(c5ccc(C#N)c(Cl)c5)C4)C3)cc2)CC1 (stereo not given)
9900 nM | CN1CCN(c2ccc(C(=O)N3CCC4(C3)CN(c3ccc(C#N)c(Cl)c3)C4)cc2)CC1
> 10000 nM | CN1CCN(c2ccc(C(=O)N3CCC4(CC3)CN(c3ccc(C#N)c(Cl)c3)C4)cc2)CC1

Compound | IC50
CN1CCN(C(=O)c2ccc(N3CCC4(CC3)CCN(c3ccc(C#N)c(Cl)c3)C4)cc2)CC1 | 80 nM
CN1CCN(c2ccc(C(=O)N3CCC4(CC3)CCN(c3ccc(C#N)c(Cl)c3)C4)cc2)CC1 | 3600 nM
CN1CCN(c2ccc(C(=O)N[C@H]3CC[C@H](N(C)c4ccc(C#N)c(Cl)c4)CC3)cc2)CC1 | 15 nM

Target: Protein cereblon/Androgen receptor (Homo sapiens, UniProt P10275+Q96SW2, T878A)
Assay: PROTAC activity at AR T878A mutant/CRBN in human LNCaP cells assessed as induction of androgen receptor degradation measured at 24 hrs by Western blot analysis
Format: cell-based
Details: not given

Compound | DC50
C[C@H]1CC2(CCN(c3ccc(C(=O)N4CCC(CN5Cc6cc7c(cc6C5)C(=O)N(C5CCC(=O)NC5=O)C7=O)CC4)nc3)CC2)CN1c1ccc(C#N)c(Cl)c1 (stereo not given in full) | 4.6 nM
C[C@H]1CC2(CCN(c3ccc(C(=O)N4CCC(CN5Cc6cc7c(cc6C5)C(=O)N(C5CCC(=O)NC5=O)C7=O)CC4)cn3)CC2)CN1c1ccc(C#N)c(Cl)c1 (stereo not given in full) | 2.2 nM
